# Experimental data from patent US20210122730A1, “GLUCOCORTICOID RECEPTOR MODULATORS” (ORIC Pharmaceuticals, Inc., priority 2017, published 2021).
# Target: T1, GR (Homo sapiens, UniProt P04150)
# T1 construct: expressed in transfected cells; host or cells: CHO-K1
# T1 sequence (P04150 1-777): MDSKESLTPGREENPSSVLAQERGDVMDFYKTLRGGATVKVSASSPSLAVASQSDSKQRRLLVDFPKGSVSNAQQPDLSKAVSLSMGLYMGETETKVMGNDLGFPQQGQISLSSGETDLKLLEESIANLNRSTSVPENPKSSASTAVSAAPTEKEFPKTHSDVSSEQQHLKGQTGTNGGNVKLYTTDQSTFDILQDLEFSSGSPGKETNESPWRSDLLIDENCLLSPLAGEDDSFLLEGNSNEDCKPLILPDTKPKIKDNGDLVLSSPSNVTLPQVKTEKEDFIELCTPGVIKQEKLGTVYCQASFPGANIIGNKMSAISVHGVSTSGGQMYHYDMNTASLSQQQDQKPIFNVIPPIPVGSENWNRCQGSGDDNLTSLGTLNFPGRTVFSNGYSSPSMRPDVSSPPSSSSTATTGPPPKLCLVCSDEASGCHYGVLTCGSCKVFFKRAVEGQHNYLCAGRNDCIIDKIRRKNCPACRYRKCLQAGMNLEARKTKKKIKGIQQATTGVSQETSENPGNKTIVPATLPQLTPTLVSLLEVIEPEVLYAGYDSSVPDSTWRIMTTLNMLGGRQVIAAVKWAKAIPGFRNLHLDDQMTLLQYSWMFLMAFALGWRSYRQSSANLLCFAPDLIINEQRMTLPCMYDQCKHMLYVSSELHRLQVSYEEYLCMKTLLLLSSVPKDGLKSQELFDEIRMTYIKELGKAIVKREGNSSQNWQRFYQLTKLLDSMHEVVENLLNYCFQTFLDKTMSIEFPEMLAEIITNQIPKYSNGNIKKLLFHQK
# Test: In Vitro GR Luciferase Reporter Assay (antagonist mode, CHO-K1-GR-MMTV-Luc reporter cells)
# Assay type: cell-based
# Settings: antagonist mode, 10 nM Dexamethasone
# How it was run: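 Antagonist mode: compounds (8 serial 1:5 dilutions) added to GR-MMTV-luciferase CHO-K1 reporter cells co-exposed to 10 nM dexamethasone final, in phenol red-free DMEM plus 10% CSS. After roughly 18-24 h at 37° C, OneGlo luminescence read and IC50 calculated.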
row,Structure (SMILES),IC50
1,"CC(C)N([C@H]1CCC2=Cc3c(cnn3-c3ccc(F)cc3)C[C@]2(C(=O)c2ncc(C(F)(F)F)s2)C1)S(=O)(=O)c1ccc(Cl)cc1 [Example 208, 4-chloro-N-((4aS,6S)-1-(4-fluorophenyl)-4a-(5-(trifluoromethyl)thiazole-2-carbonyl)-4,4a,5,6,7,8-hexahydro-1H-benzo[f]indazol-6-yl)-N-isopropylbenzenesulfonamide]",≤ 100 nM
2,"CC(C)N([C@H]1CCC2=Cc3c(cnn3-c3ccc(F)cc3)C[C@]2(C(=O)c2ncc(C(F)(F)F)s2)C1)S(=O)(=O)c1ccc(F)cc1 [Example 209, 4-fluoro-N-((4aS,6S)-1-(4-fluorophenyl)-4a-(5-(trifluoromethyl)thiazole-2-carbonyl)-4,4a,5,6,7,8-hexahydro-1H-benzo[f]indazol-6-yl)-N-isopropylbenzenesulfonamide]",≤ 100 nM
3,"Cn1cc(S(=O)(=O)N(C2COC2)[C@H]2CCC3=Cc4c(cnn4-c4ccc(F)cc4)C[C@]3(C(=O)c3cc(C(F)(F)F)ccn3)C2)cn1 [Example 213, N-((4aS,6S)-1-(4-fluorophenyl)-4a-(4-(trifluoromethyl)picolinoyl)-4,4a,5,6,7,8-hexahydro-1H-benzo[f]indazol-6-yl)-1-methyl-N-(oxetan-3-yl)-1H-pyrazole-4-sulfonamide]",≤ 100 nM
4,"Cn1cc(S(=O)(=O)N(C2COC2)[C@H]2CCC3=Cc4c(cnn4-c4ccc(F)cc4)C[C@]3(C(=O)c3ncc(C(F)(F)F)s3)C2)nn1 [Example 218, N-((4aS,6S)-1-(4-fluorophenyl)-4a-(5-(trifluoromethyl)thiazole-2-carbonyl)-4,4a,5,6,7,8-hexahydro-1H-benzo[f]indazol-6-yl)-1-methyl-N-(oxetan-3-yl)-1H-1,2,3-triazole-4-sulfonamide]",≤ 100 nM
5,"Cn1cc(S(=O)(=O)N(C2COC2)[C@H]2CCC3=Cc4c(cnn4-c4ccc(F)cc4)C[C@]3(C(=O)c3cc(C(F)(F)F)ccn3)C2)nn1 [Example 220, N-((4aS,6S)-1-(4-fluorophenyl)-4a-(4-(trifluoromethyl)picolinoyl)-4,4a,5,6,7,8-hexahydro-1H-benzo[f]indazol-6-yl)-1-methyl-N-(oxetan-3-yl)-1H-1,2,3-triazole-4-sulfonamide]",≤ 100 nM
6,"Cn1cc(S(=O)(=O)N(C2CCC2)[C@H]2CCC3=Cc4c(cnn4-c4ccc(F)cc4)C[C@]3(C(=O)c3cc(C(F)(F)F)ccn3)C2)cn1 [Example 235, N-cyclobutyl-N-((4aS,6S)-1-(4-fluorophenyl)-4a-(4-(trifluoromethyl)picolinoyl)-4,4a,5,6,7,8-hexahydro-1H-benzo[f]indazol-6-yl)-1-methyl-1H-pyrazole-4-sulfonamide]",≤ 100 nM
7,"O=C(c1cc(C(F)(F)F)ccn1)[C@]12Cc3cnn(-c4ccc(F)cc4)c3C=C1CC[C@H](N(C1CCCC1)S(=O)(=O)c1ccc(F)cc1)C2 [Example 237, N-cyclopentyl-4-fluoro-N-((4aS,6S)-1-(4-fluorophenyl)-4a-(4-(trifluoromethyl)picolinoyl)-4,4a,5,6,7,8-hexahydro-1H-benzo[f]indazol-6-yl)benzenesulfonamide]",≤ 100 nM
8,"Cn1ccc(S(=O)(=O)N(C2CCCC2)[C@H]2CCC3=Cc4c(cnn4-c4ccc(F)cc4)C[C@]3(C(=O)c3cc(C(F)(F)F)ccn3)C2)n1 [Example 238, N-cyclopentyl-N-((4aS,6S)-1-(4-fluorophenyl)-4a-(4-(trifluoromethyl)picolinoyl)-4,4a,5,6,7,8-hexahydro-1H-benzo[f]indazol-6-yl)-1-methyl-1H-pyrazole-3-sulfonamide]",≤ 100 nM
9,"Cn1ncc(S(=O)(=O)N(C2COC2)[C@H]2CCC3=Cc4c(cnn4-c4ccc(F)cc4)C[C@]3(C(=O)c3cc(C(F)(F)F)ccn3)C2)n1 [Example 239, N-((4aS,6S)-1-(4-fluorophenyl)-4a-(4-(trifluoromethyl)picolinoyl)-4,4a,5,6,7,8-hexahydro-1H-benzo[f]indazol-6-yl)-2-methyl-N-(oxetan-3-yl)-2H-1,2,3-triazole-4-sulfonamide]",≤ 100 nM
10,"O=C(c1ccc(Cl)cn1)[C@]12Cc3cnn(-c4ccc(F)cc4)c3C=C1CC[C@H](N(C1CC1)S(=O)(=O)c1ccc(F)cc1)C2 [Example 240, N-((4aS,6S)-4a-(5-chloropicolinoyl)-1-(4-fluorophenyl)-4,4a,5,6,7,8-hexahydro-1H-benzo[f]indazol-6-yl)-N-cyclopropyl-4-fluorobenzenesulfonamide]",≤ 100 nM
11,"CC(C)CN([C@H]1CCC2=Cc3c(cnn3-c3ccc(F)cc3)C[C@]2(C(=O)c2cc(Cl)ccn2)C1)S(=O)(=O)c1ccn(C)n1 [Example 249, N-((4aS,6S)-4a-(4-chloropicolinoyl)-1-(4-fluorophenyl)-4,4a,5,6,7,8-hexahydro-1H-benzo[f]indazol-6-yl)-N-isobutyl-1-methyl-1H-pyrazole-3-sulfonamide]",≤ 100 nM
12,"CC(C)CN([C@H]1CCC2=Cc3c(cnn3-c3ccc(F)cc3)C[C@]2(C(=O)c2cc(F)ccn2)C1)S(=O)(=O)c1ccn(C)n1 [Example 252, N-((4aS,6S)-1-(4-fluorophenyl)-4a-(4-fluoropicolinoyl)-4,4a,5,6,7,8-hexahydro-1H-benzo[f]indazol-6-yl)-N-isobutyl-1-methyl-1H-pyrazole-3-sulfonamide]",≤ 100 nM
13,"O=C(c1cc(C(F)(F)F)ccn1)[C@]12Cc3cnn(-c4ccc(F)cc4)c3C=C1CC[C@H](N(C1CCC1)S(=O)(=O)c1ccn(C(F)F)n1)C2 [Example 253, N-cyclobutyl-1-(difluoromethyl)-N-((4aS,6S)-1-(4-fluorophenyl)-4a-(4-(trifluoromethyl)picolinoyl)-4,4a,5,6,7,8-hexahydro-1H-benzo[f]indazol-6-yl)-1H-pyrazole-3-sulfonamide]",≤ 100 nM
14,"Cn1ncc(S(=O)(=O)N(C2CCC2)[C@H]2CCC3=Cc4c(cnn4-c4ccc(F)cc4)C[C@]3(C(=O)c3cc(C(F)(F)F)ccn3)C2)n1 [Example 256, N-cyclobutyl-N-((4aS,6S)-1-(4-fluorophenyl)-4a-(4-(trifluoromethyl)picolinoyl)-4,4a,5,6,7,8-hexahydro-1H-benzo[f]indazol-6-yl)-2-methyl-2H-1,2,3-triazole-4-sulfonamide]",≤ 100 nM

# Second part, the molecule after the results:
row,IC50,Structure (SMILES)
1,≤ 100 nM,"Cn1cc(S(=O)(=O)[C@H]2CCC3=Cc4c(cnn4-c4ccc(F)cc4)C[C@]3(C(=O)c3ncc(C(F)(F)F)s3)C2)cn1 [Example 190, ((4aS,6S)-1-(4-fluorophenyl)-6-((1-methyl-1H-pyrazol-4-yl)sulfonyl)-1,4,5,6,7,8-hexahydro-4aH-benzo[f]indazol-4a-yl)(5-(trifluoromethyl)thiazol-2-yl)methanone]"
2,≤ 100 nM,"CC(C)N([C@H]1CCC2=Cc3c(cnn3-c3ccc(F)cc3)C[C@]2(C(=O)c2ncc(C3CC3)s2)C1)S(=O)(=O)c1cnn(C)c1 [Example 192, N-((4aS,6S)-4a-(5-cyclopropylthiazole-2-carbonyl)-1-(4-fluorophenyl)-4,4a,5,6,7,8-hexahydro-1H-benzo[f]indazol-6-yl)-N-isopropyl-1-methyl-1H-pyrazole-4-sulfonamide]"
3,≤ 100 nM,"Cn1ccc(C(=O)N(C2CC2)[C@H]2CCC3=Cc4c(cnn4-c4ccc(F)cc4)C[C@]3(C(=O)c3cc(C(F)(F)F)ccn3)C2)n1 [Example 197, N-cyclopropyl-N-((4aS,6S)-1-(4-fluorophenyl)-4a-(4-(trifluoromethyl)picolinoyl)-4,4a,5,6,7,8-hexahydro-1H-benzo[f]indazol-6-yl)-1-methyl-1H-pyrazole-3-carboxamide]"
4,≤ 100 nM,"Cn1ncc(S(=O)(=O)N(CC2CC2)[C@H]2CCC3=Cc4c(cnn4-c4ccc(F)cc4)C[C@]3(C(=O)c3cc(C(F)(F)F)ccn3)C2)n1 [Example 200, N-(cyclopropylmethyl)-N-((4aS,6S)-1-(4-fluorophenyl)-4a-(4-(trifluoromethyl)picolinoyl)-4,4a,5,6,7,8-hexahydro-1H-benzo[f]indazol-6-yl)-2-methyl-2H-1,2,3-triazole-4-sulfonamide]"
5,≤ 100 nM,"O=C(c1ncc(C(F)(F)F)s1)[C@]12Cc3cnn(-c4ccc(F)cc4)c3C=C1CC[C@H](N(C1COC1)S(=O)(=O)c1ccc(F)cc1)C2 [Example 205, 4-fluoro-N-((4aS,6S)-1-(4-fluorophenyl)-4a-(5-(trifluoromethyl)thiazole-2-carbonyl)-4,4a,5,6,7,8-hexahydro-1H-benzo[f]indazol-6-yl)-N-(oxetan-3-yl)benzenesulfonamide]"
6,≤ 100 nM,"Cn1cc(S(=O)(=O)N(C2COC2)[C@H]2CCC3=Cc4c(cnn4-c4ccc(F)cc4)C[C@]3(C(=O)c3ncc(C(F)(F)F)s3)C2)cn1 [Example 207, N-((4aS,6S)-1-(4-fluorophenyl)-4a-(5-(trifluoromethyl)thiazole-2-carbonyl)-4,4a,5,6,7,8-hexahydro-1H-benzo[f]indazol-6-yl)-1-methyl-N-(oxetan-3-yl)-1H-pyrazole-4-sulfonamide]"
